Data set [1] can be described thus: Dynamic vapor sorption (DVS). It is filed as physicochemical. The settings on record: up to 90% RH. As for the experimental part:
Example 6: Procedures Used for Dynamic Vapor Sorption (DVS) Measurements
DVS was measured using SMS DVS advantage 01 changing the relative humidity from 0% RH to 95% RH in steps of 10% RH (5% between 90 and 95% RH). 2 cycles were performed using 1-10 mg, starting at 30% RH.

A short description of data set [2]: Relative thermodynamic stability of crystalline forms (DSC, XRPD after heating, slurry). It is filed as physicochemical. The settings on record: form 1 converts to form 3 on heating to 150° C. and upon slurry. As for the experimental part:
In a vial Compound (I) form 1 (500 mg) were slurried in a 1:1 mixture of MeCN/water at room temperature for 24 hours. A small sample of wet precipitate was analyzed by XRPD showing the diffractogram of FIG. 3.
DSC was measured using a TA-Instruments Discovery-DSC calibrated at 5°/min to give the melting point as onset value. About 2 mg of sample is heated 5°/min under nitrogen flow in a closed pan with a pinhole in the lid.
Thus, Compound (I) Form 3 was formed upon heating of Compound (I) Form 1.

The target in data set [3] is T1, MAGL (Mus musculus, UniProt O35678).
T1 construct: brain proteomes were prepared and analyzed according to previously established methods; from tissue; host or cells: brain of wild-type C57Bl/6J animals
T1 sequence (O35678 1-303): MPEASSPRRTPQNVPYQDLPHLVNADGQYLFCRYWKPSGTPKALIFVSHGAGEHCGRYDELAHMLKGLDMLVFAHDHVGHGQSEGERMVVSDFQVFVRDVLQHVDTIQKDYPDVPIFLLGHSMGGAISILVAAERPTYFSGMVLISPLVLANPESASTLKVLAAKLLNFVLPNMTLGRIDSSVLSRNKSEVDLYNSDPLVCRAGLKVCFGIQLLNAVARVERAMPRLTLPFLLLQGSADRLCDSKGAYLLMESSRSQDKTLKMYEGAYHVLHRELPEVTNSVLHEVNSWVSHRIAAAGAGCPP
Nature of the data set: In vivo MAGL inhibition, brain proteomes after oral gavage. The settings on record: 5 mg/kg oral gavage; C57Bl/6J; brain proteomes 4 h after administration. As for the experimental part: Compound (I) were administered to wild-type C57Bl/6J by oral gavage in a vehicle of polyethylene glycol. Each animal was sacrificed 4 h following administration and brain proteomes were prepared and analyzed according to previously established methods (See Niphakis, M. J., et al. (2011) ACS Chem. Neurosci. and Long, J. Z., et al. Nat. Chem. Biol. 5:37-44).

In data set [4] the target is T2, MAGL (Homo sapiens, UniProt Q99685).
T2 construct: measuring fluorescent intensity of gel bands corresponding to MAGL; endogenous in cells; host or cells: PC3 human cells (membrane proteome)
T2 sequence (Q99685 1-303): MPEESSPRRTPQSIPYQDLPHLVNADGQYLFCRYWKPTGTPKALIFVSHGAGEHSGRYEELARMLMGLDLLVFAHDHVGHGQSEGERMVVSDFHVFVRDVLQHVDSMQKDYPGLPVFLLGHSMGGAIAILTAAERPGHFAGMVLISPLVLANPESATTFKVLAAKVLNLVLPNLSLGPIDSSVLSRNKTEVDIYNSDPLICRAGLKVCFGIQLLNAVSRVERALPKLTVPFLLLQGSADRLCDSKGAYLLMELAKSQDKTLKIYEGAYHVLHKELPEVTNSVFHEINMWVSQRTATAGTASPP
Nature of the data set: In vitro competitive activity-based protein profiling (ABPP) in PC3 human cell membrane proteomes. Conditions: 30 min preincubation at 37° C., read-out: MAGL % inh. 1 μM (human PC3). It is filed as biochemical. As for the experimental part:
In Vitro Competitive Activity-Based Protein Profiling
PC3 human cell membrane proteomes (50 μL, 2.0 mg/mL total protein concentration) were preincubated with varying concentrations of Compound (I) at 37° C. After 30 min, the ABPP probe JW912-Bodipy (1.0 μL, 50 μM in DMSO) was added and the mixture was incubated for 30 min at room temperature. Reactions were quenched with SDS loading buffer (15 μL—4×) and run on SDS-PAGE. Following gel imaging, serine hydrolase activity was determined by measuring fluorescent intensity of gel bands corresponding to MAGL using ImageJ 1.43u software. Intensities were converted to percent enzyme activity by normalizing to DMSO controls. IC50 values were determined by fitting percent enzyme activities to a non-linear regression, 4-parameter, sigmoidal dose response function in Prism GraphPad.

From patent US12378219B2, “Crystalline forms of a MAGL inhibitor” (H. LUNDBECK A/S, priority 2022, dated 2025) come the findings set out here.

Each structure is given as a SMILES string.

With `O=C(Nc1cccnn1)[C@H]1CC12CCN(C(=O)OC(C(F)(F)F)C(F)(F)F)CC2` [Compound (I) form 1, 1,1,1,3,3,3-Hexafluoropropan-2-yl (S)-1-(pyridazin-3-ylcarbamoyl)-6-azaspiro[2.5]octane-6-carboxylate form 1], in data set [1], the “water uptake (DVS)” value is 1.4 wt %.

As for `O=C(Nc1cccnn1)[C@H]1CC12CCN(C(=O)OC(C(F)(F)F)C(F)(F)F)CC2` [Compound (I) form 3, 1,1,1,3,3,3-Hexafluoropropan-2-yl (S)-1-(pyridazin-3-ylcarbamoyl)-6-azaspiro[2.5]octane-6-carboxylate form 3], in data set [2], the “thermodynamic stability relative to the other crystalline form” value is on record as “thermodynamically more stable than Compound (I) Form 1”. In addition, the “water uptake (DVS)” value in data set [1] is listed as “around 0.1 wt %”.

In the case of `O=C(Nc1cccnn1)[C@H]1CC12CCN(C(=O)OC(C(F)(F)F)C(F)(F)F)CC2` [Compound (I), 1,1,1,3,3,3-Hexafluoropropan-2-yl (S)-1-(pyridazin-3-ylcarbamoyl)-6-azaspiro[2.5]octane-6-carboxylate], the “MAGL % inh. 5 mg/kg (mouse)” value in data set [3] is 100%. The inhibition at 1 µM in data set [4] amounted to 100%.
